Measurements published in EP3375430A1, “FRAGRANCE COMPOSITIONS” (Takasago International Corporation, priority 2017, dated 2018).
One block for each compound: values may come before it.

Legend:
[1] = Amount of fragrance ingredients retained on paper blotter after evaporation (ethanol extraction, GC-MS); assay type: physicochemical
Protocol: A fragrance (hereafter fragrance TAK, the formulation of which is shown in table 1) was formulated in a typical Eau de Toilette (EdT1) or in fragrance compositions according to the invention (compositions C1 to C4), as shown in table 2. The amount of individual fragrance ingredients retained on paper substrate (blotter) after set time periods was assessed by the following method.
100µL samples of either EdT1 or compositions C1 to C4 were applied to 4.5cm long standard paper blotters with a microsyringe. Three replicate blotters were prepared for each extraction time. After the appropriate evaporation time each of the 3 blotters was transferred to a 30mL glass bottle. 3mL of ethanol and 50µL of a 1% solution of methyl decanoate in ethanol as an internal standard were added. The bottle was sealed and placed on a roller bed to extract the blotter for 1 hour. A sample of the extracting solution was transferred to a vial which was sealed and analysed by gas chromatography (GC 6890) with a Mass Spectrometer detector (MS 5973) using the method described below. The results of the three replicate measurements were averaged. At exact times the same extraction was repeated on the remaining blotters which were stored on a warm surface at 32°C open to the air to allow evaporation. The gas chromatography conditions were as given below.
• Initial Temp: 50°C • Initial Time: 2 min • Rate: 10°C /min • Final Temp: 280°C • Final Time: 5 min • Run Time: 30 min
• Column: HP-5MS 30m * 0.25mm * 0.25µm • Gas: Helium • Constant Pressure 18.55 psi
• Split mode Ratio 40:1 • Inlet Temp: 250°C
• MS 5973 • Mass range: 35 to 350 • Threshold: 100 • Mass Quad: 150°C • Mass Source: 230°C
To simplify the results the average amount of each fragrance ingredient from the 3 samples measured at time zero was set at 100% and all other measurements were then related to that value so tables 3 to 6 show decreasing amounts of fragrance ingredients as a percentage of the initial amount.
The method of example 1 was repeated using a commercial fragrance (hereafter fragrance COM1, the formulation of which is given in table 7) formulated in a typical Eau de Toilette (EdT2) or in fragrance compositions according to the invention (compositions C5 and C6), as shown in table 8.

[2] = Headspace concentration of fragrance ingredients over blotter (thermal desorption GC-MS); assay type: physicochemical
Protocol: The headspace concentration of individual ingredients of fragrance TAK, as formulated in either a conventional EdT (EdT1) or a fragrance composition of the invention (C1), was assessed by the method described below.
A 10 cm length was cut from a standard perfumers' blotter. A sample of 100µL volume was applied to the upper surface of the blotter with a syringe. The blotter was placed on a hot plate thermostatted at 32°C and left to equilibrate for 5 minutes. Two desorption tubes (6cm length 4mm internal diameter) each containing 2 cm length of Tenax TA adsorbent were fitted to the glass part of a headspace apparatus shown in figure 9. The glass part was fitted over the blotter, a metering pump was connected to one of the desorption tubes and air was drawn through the apparatus flushing the headspace over the blotter at a rate of 17mL/min. Sampling continued for about 16.5 minutes until 280mL of air had been extracted. Then the outlet desorption tube was analysed by gas chromatography as described below. The glass part was removed from the blotter which was left on the hotplate until the next sampling time when two fresh desorption tubes were fitted and the extraction procedure repeated for a further 280mL of extracted headspace.
• Initial Temp: 50°C • Initial Time: 5 min • Rate: 3°C /min • Final Temp: 250°C • Final Time: 20 min • Run Time: 91.67 min
• Column: HP-5MS 30m * 0.25mm * 0.25µm • Gas: Helium • Constant pressure 12.675 psi
• Initial Temp: -30°C • Equilibration Time: 0.05 min • Initial Time: 0.00 min • Rate 12°C / min • End Temp: 260°C • Hold Time: 10 min
Temperature program • Initial Temp: 35°C • Delay Time: 0.30 min • Initial Time: 0.00 min • Rate: 30°C / min • End Temp: 250°C • Hold Time: 5.00 min
TDU Settings • Transfer Temp: 250°C • Transfer Temp Mode: Fixed • Desorption Mode: splitless • Sample mode: Retain tube - standby cooling • Standby Temp: 50°C
Detector MS • MS 5973 • Mass range: 35 to 350 • Threshold: 150 • Mass Quad: 150°C • Mass Source: 230°C
Following the procedure of example 2, the headspace concentration of representative ingredients of fragrance COM1 was determined. COM1 was dosed at 5 and 20 % either in control EdT3 and EdT4 or in compositions of the invention C7 and C8, as shown in table 10.
The headspace concentration of individual ingredients of fragrance TAK (see Table 1), as formulated in either a conventional EdT (EdT1) or fragrance compositions of the invention (C14, C15), was assessed by the method described in example 2.

amount of fragrance ingredient retained on blotter (percentage of the initial amount) ([1]; Table 9, fragrance COM1 in C5, T0 + 15 min): 80.96% | amount of fragrance ingredient retained on blotter (percentage of the initial amount) ([1]; Table 9, fragrance COM1 in C5, T0 + 480 min): 8.4% | amount of fragrance ingredient retained on blotter (percentage of the initial amount) ([1]; Table 9, fragrance COM1 in C5, T0 +1440 min): 2.22% | amount of fragrance ingredient retained on blotter (percentage of the initial amount) ([1]; Table 9, fragrance COM1 in C6, T0 + 15 min): 70.8% | amount of fragrance ingredient retained on blotter (percentage of the initial amount) ([1]; Table 9, fragrance COM1 in C6, T0 + 480 min): 6.9% | amount of fragrance ingredient retained on blotter (percentage of the initial amount) ([1]; Table 9, fragrance COM1 in C6, T0 +1440 min): 2.6% | amount of fragrance ingredient retained on blotter (percentage of the initial amount) ([1]; Table 9, fragrance COM1 in EdT2, C5 or C6, T0, set at 100% (normalisation)): 100% | amount of fragrance ingredient retained on blotter (percentage of the initial amount) ([1]; Table 9, fragrance COM1 in EdT2, T0 + 15 min): 67.48% | amount of fragrance ingredient retained on blotter (percentage of the initial amount) ([1]; Table 9, fragrance COM1 in EdT2, T0 + 480 min): 9.91% | amount of fragrance ingredient retained on blotter (percentage of the initial amount) ([1]; Table 9, fragrance COM1 in EdT2, T0 +1440 min): 7.26% | headspace concentration in composition C8 compared to control EdT4 ([2]; COM1 dosed at 20 wt%, up to 8 hours, Figures 8 to 10): significantly higher
SMILES: C=CC(C)(O)CCC=C(C)CC (mixture of isomers) [Ethyl Linalool, Ethyl linalool]

amount of fragrance ingredient retained on blotter (percentage of the initial amount) ([1]; Table 3, fragrance TAK in C1, 15 min, 32°C): 76% | amount of fragrance ingredient retained on blotter (percentage of the initial amount) ([1]; Table 3, fragrance TAK in C1, 60 min, 32°C): 77% | amount of fragrance ingredient retained on blotter (percentage of the initial amount) ([1]; Table 3, fragrance TAK in C1, 120 min, 32°C): 75% | amount of fragrance ingredient retained on blotter (percentage of the initial amount) ([1]; Table 3, fragrance TAK in C1, 240 min, 32°C): 73% | amount of fragrance ingredient retained on blotter (percentage of the initial amount) ([1]; Table 3, fragrance TAK in C1, 480 min, 32°C): 60% | amount of fragrance ingredient retained on blotter (percentage of the initial amount) ([1]; Table 3, fragrance TAK in EdT1, 15 min, 32°C): 96% | amount of fragrance ingredient retained on blotter (percentage of the initial amount) ([1]; Table 3, fragrance TAK in EdT1, 60 min, 32°C): 87% | amount of fragrance ingredient retained on blotter (percentage of the initial amount) ([1]; Table 3, fragrance TAK in EdT1, 120 min, 32°C): 85% | amount of fragrance ingredient retained on blotter (percentage of the initial amount) ([1]; Table 3, fragrance TAK in EdT1, 240 min, 32°C): 80% | amount of fragrance ingredient retained on blotter (percentage of the initial amount) ([1]; Table 3, fragrance TAK in EdT1, 480 min, 32°C): 32% | amount of fragrance ingredient retained on blotter (percentage of the initial amount) ([1]; Table 3, fragrance TAK in EdT1 or C1, T0, set at 100% (normalisation)): 100% | amount of fragrance ingredient retained on blotter (percentage of the initial amount) ([1]; Table 4, fragrance TAK in C2, 15 min, 32°C): 99% | amount of fragrance ingredient retained on blotter (percentage of the initial amount) ([1]; Table 4, fragrance TAK in C2, 480 min, 32°C): 63% | amount of fragrance ingredient retained on blotter (percentage of the initial amount) ([1]; Table 4, fragrance TAK in EdT1, 15 min, 32°C): 84% | amount of fragrance ingredient retained on blotter (percentage of the initial amount) ([1]; Table 4, fragrance TAK in EdT1, 480 min, 32°C): 32% | amount of fragrance ingredient retained on blotter (percentage of the initial amount) ([1]; Table 4, fragrance TAK in EdT1 or C2, T0, set at 100% (normalisation)): 100% | amount of fragrance ingredient retained on blotter (percentage of the initial amount) ([1]; Table 5, fragrance TAK in C3, 15 min, 32°C): 78% | amount of fragrance ingredient retained on blotter (percentage of the initial amount) ([1]; Table 5, fragrance TAK in C3, 60 min, 32°C): 84% | amount of fragrance ingredient retained on blotter (percentage of the initial amount) ([1]; Table 5, fragrance TAK in C3, 120 min, 32°C): 83% | amount of fragrance ingredient retained on blotter (percentage of the initial amount) ([1]; Table 5, fragrance TAK in C3, 240 min, 32°C): 82% | amount of fragrance ingredient retained on blotter (percentage of the initial amount) ([1]; Table 5, fragrance TAK in C3, 480 min, 32°C): 61% | amount of fragrance ingredient retained on blotter (percentage of the initial amount) ([1]; Table 5, fragrance TAK in C3, 1440 min, 32°C): 50% | amount of fragrance ingredient retained on blotter (percentage of the initial amount) ([1]; Table 5, fragrance TAK in EdT1, 15 min, 32°C): 96% | amount of fragrance ingredient retained on blotter (percentage of the initial amount) ([1]; Table 5, fragrance TAK in EdT1, 60 min, 32°C): 87% | amount of fragrance ingredient retained on blotter (percentage of the initial amount) ([1]; Table 5, fragrance TAK in EdT1, 120 min, 32°C): 85% | amount of fragrance ingredient retained on blotter (percentage of the initial amount) ([1]; Table 5, fragrance TAK in EdT1, 240 min, 32°C): 80% | amount of fragrance ingredient retained on blotter (percentage of the initial amount) ([1]; Table 5, fragrance TAK in EdT1, 480 min, 32°C): 32% | amount of fragrance ingredient retained on blotter (percentage of the initial amount) ([1]; Table 5, fragrance TAK in EdT1, 1440 min, 32°C): 14% | amount of fragrance ingredient retained on blotter (percentage of the initial amount) ([1]; Table 5, fragrance TAK in EdT1 or C3, T0, set at 100% (normalisation)): 100% | amount of fragrance ingredient retained on blotter (percentage of the initial amount) ([1]; Table 6, fragrance TAK in C4, 15 min, 32°C): 92% | amount of fragrance ingredient retained on blotter (percentage of the initial amount) ([1]; Table 6, fragrance TAK in C4, 60 min, 32°C): 84% | amount of fragrance ingredient retained on blotter (percentage of the initial amount) ([1]; Table 6, fragrance TAK in C4, 120 min, 32°C): 93% | amount of fragrance ingredient retained on blotter (percentage of the initial amount) ([1]; Table 6, fragrance TAK in C4, 240 min, 32°C): 94% | amount of fragrance ingredient retained on blotter (percentage of the initial amount) ([1]; Table 6, fragrance TAK in C4, 480 min, 32°C): 65% | amount of fragrance ingredient retained on blotter (percentage of the initial amount) ([1]; Table 6, fragrance TAK in EdT1, 15 min, 32°C): 96% | amount of fragrance ingredient retained on blotter (percentage of the initial amount) ([1]; Table 6, fragrance TAK in EdT1, 60 min, 32°C): 87% | amount of fragrance ingredient retained on blotter (percentage of the initial amount) ([1]; Table 6, fragrance TAK in EdT1, 120 min, 32°C): 85% | amount of fragrance ingredient retained on blotter (percentage of the initial amount) ([1]; Table 6, fragrance TAK in EdT1, 240 min, 32°C): 80% | amount of fragrance ingredient retained on blotter (percentage of the initial amount) ([1]; Table 6, fragrance TAK in EdT1, 480 min, 32°C): 32% | amount of fragrance ingredient retained on blotter (percentage of the initial amount) ([1]; Table 6, fragrance TAK in EdT1 or C4, T0, set at 100% (normalisation)): 100% | headspace concentration in composition C1 compared to control EdT1 ([2]; fragrance TAK, T0 + 8h, Figure 4): lower
SMILES: CC/C=C\CCOC(=O)c1ccccc1O [Cis 3-hexenyl salicylate, Cis-3-hexenyl salicylate]
